Assay results published in patent US6025378A, “Bicyclic heterocyclic compounds” (Bayer Aktiengesellschaft, priority 1995, dated 2000).

These compounds were tested on ApoB-100-associated lipoproteins released from HepG2 cells (assay: Inhibition of the release of ApoB-100-associated lipoproteins from cultured hepatic HepG2 cells (immunoassay for human LDL)). Settings: HepG2 cells; culture supernatant; absorption at 450 nm inhibited by 50% vs solvent control; read-out: Apo B IC50.
Format: cell-based
Description: 1. Inhibition of the Release of ApoB-100-associated Lipoproteins
The test for detection of the inhibition of the release of ApoB-100-associated lipoproteins from hepatic cells was carried out in vitro with cultured hepatic cells, preferably with cells of the human line HepG2. These cells are cultured under standard conditions in medium for culture of eukaryotic cells, preferably in RPMI 1640 with 10% foetal calf serum. HepG2 cells synthesize and secrete into the culture supernatant ApoB-100-associated lipoprotein particles, which are in principle built up similarly to the VLDL and LDL particles which are to be found in plasma.
These particles can be detected with an immunoassay for human LDL. This immunoassay is carried out with antibodies which have been induced against human LDL in rabbits under standard conditions. The anti-LDL antibodies (rab-anti-LDL-Ab) were purified by affinity chromatography on an immunosorbent with human LDL. These purified rab-anti-LDL-Ab are adsorbed onto the surface of plastic. This adsorption is expediently carried out on the plastic surface of microtiter plates with 96 wells, preferably on MaxiSorp plates. If ApoB-100-associated particles are present in the supernatant of Hep-G2 cells, these can bond to the insolubilized rab-anti-LDL-Ab, and an immune complex bonded to the plastic surface is formed. Non-bonded proteins are removed by washing The immune complex on the plastic source is detected with monoclonal antibodies, which have been induced against human LDL and purified under standard conditions. These antibodies were conjugated with the enzyme peroxidase. Peroxidase converts the colourless substrate TMB into a coloured product in the presence of H2 O2. After acidification of the reaction mixture with H2 SO4, the specific absorption of light is determined at 450 nm, this being a measure of the amount of ApoB-100-associated particles wich had been secreted by the HepG2 cells into the culture supernatant.
The IC50 value indicates the concentration of substance at which the absorption of light is inhibited by 50% compared with the control (solvent control without the substance).

First: Cc1cc2nc(C(F)(F)F)n(Cc3ccc(C(C(=O)N[C@@H](CO)c4ccccc4)C4CCCC4)cc3)c2cc1C (single isomer, unassigned) [Example 23]
Second: Cc1cccc2c1[nH]c(=S)n2Cc1ccc(C(C(=O)N[C@@H](CO)c2ccccc2)C2CCCC2)cc1 (some centres unmarked) [Example 54]
The IC50 of the first is 2.4-fold higher: 147 nM for the first, 60.2 nM for the second. The second is the more potent here.

Compared with O=C(N[C@@H](CO)c1ccccc1)C(c1ccc(Cn2nc(-c3ccc(Cl)cc3)c3ccccc3c2=O)cc1)C1CCCC1 (some centres unmarked) [Example 78], CCc1nc2ccccc2c(=O)n1Cc1ccc(C(C(=O)N[C@@H](CO)c2ccccc2)C2CCCC2)cc1 (some centres unmarked) [Example 68] is 4-fold lower in IC50: 279 nM for the first, 70.6 nM for the second. The second is the more potent here.

Going from O=C(CSc1nc2ccccc2n1Cc1ccc(C(C(=O)N[C@@H](CO)c2ccccc2)C2CCCC2)cc1)c1ccccc1 (single isomer, unassigned) [Example 19] to CSc1nc2ccccc2n1Cc1ccc(C(C(=O)N[C@@H](CO)c2ccccc2)C2CCCC2)cc1 (single isomer, unassigned) [Example 3], the IC50 falls from 388 nM to 11.6 nM (33-fold). The second is the more potent here.

O=C(N[C@@H](CO)c1ccccc1)C(c1ccc(CN2C(=O)c3ccccc3C2=O)cc1)C1CCCCCC1 (some centres unmarked) [Example 60] and CSc1nc2ccccc2n1Cc1ccc(C(C(=O)N[C@@H](CO)c2ccccc2)C2CCCCCC2)cc1 (single isomer, unassigned) [Example 6] are within 1.5-fold of each other in IC50: 9.7 nM for the first, 8 nM for the second.

First: O=C(N[C@@H](CO)c1ccccc1)C(c1ccc(CN2C(=O)COc3cccnc32)cc1)C1CCCCCC1 (some centres unmarked) [Example 57]
Second: O=C(N[C@@H](CO)c1ccccc1)C(c1ccc(CN2C(=O)c3ccccc3C2=O)cc1)C1CCCCCC1 (some centres unmarked) [Example 61]
The IC50 of the first is 7.8-fold lower: 5 nM for the first, 38.9 nM for the second. The first is the more potent here.

Going from O=C(CSc1nc2ccccc2n1Cc1ccc(C(C(=O)N[C@@H](CO)c2ccccc2)C2CCCC2)cc1)c1ccccc1 (single isomer, unassigned) [Example 18] to CSc1nc2ccccc2n1Cc1ccc(C(C(=O)N[C@@H](CO)c2ccccc2)C2CCCC2)cc1 (single isomer, unassigned) [Example 4], the IC50 falls from 930 nM to 298 nM (3.1-fold).

O=C(N[C@@H](CO)c1ccccc1)C(c1ccc(Cn2c(-c3cscn3)nc3ccccc32)cc1)C1CCCC1 (single isomer, unassigned) [Example 27] and O=C(N[C@@H](CO)c1ccccc1)C(c1ccc(Cn2c(-c3cscn3)nc3ccccc32)cc1)C1CCCCCC1 (single isomer, unassigned) [Example 30] are within 1.5-fold of each other in IC50: 90.9 nM for the first, 112 nM for the second.

Going from Cc1nc(-c2nc3ccccc3n2Cc2ccc(C(C(=O)N[C@@H](CO)c3ccccc3)C3CCCC3)cc2)cs1 (single isomer, unassigned) [Example 34] to O=C(N[C@@H](CO)c1ccccc1)C(c1ccc(Cn2c(-c3cscn3)nc3ccccc32)cc1)C1CCCC1 (single isomer, unassigned) [Example 26], the IC50 falls from 26.6 nM to 4.5 nM (5.9-fold).

First: O=C(N[C@@H](CO)c1ccccc1)C(c1ccc(CN2C(=O)COc3cccnc32)cc1)C1CCCCCC1 (some centres unmarked) [Example 58]
Second: O=C(N[C@@H](CO)c1ccccc1)C(c1ccc(CN2C(=O)c3ccccc3C2=O)cc1)C1CCCCCC1 (some centres unmarked) [Example 62]
The IC50 of the first is 2-fold higher: 251 nM for the first, 123 nM for the second.

Cc1cc2nc(C(F)(F)F)n(Cc3ccc(C(C(=O)N[C@@H](CO)c4ccccc4)C4CCCC4)cc3)c2cc1C (single isomer, unassigned) [Example 24] and Cc1nc(-c2nc3ccccc3n2Cc2ccc(C(C(=O)N[C@@H](CO)c3ccccc3)C3CCCC3)cc2)cs1 (single isomer, unassigned) [Example 35] are within 1.5-fold of each other in IC50: 16.3 nM for the first, 11.2 nM for the second.

Going from O=C(N[C@@H](CO)c1ccccc1)C(c1ccc(Cn2nc(-c3ccc(Cl)cc3)c3ccccc3c2=O)cc1)C1CCCC1 (some centres unmarked) [Example 76] to CSc1nc2ccccc2n1Cc1ccc(C(C(=O)N[C@@H](CO)c2ccccc2)C2CCCCCC2)cc1 (single isomer, unassigned) [Example 7], the IC50 rises from 37.2 nM to 150 nM (4-fold).

Going from O=C(N[C@@H](CO)c1ccccc1)C(c1ccc(Cn2nc(-c3ccc(Cl)cc3)c3ccccc3c2=O)cc1)C1CCCC1 (some centres unmarked) [Example 77] to O=C(N[C@@H](CO)c1ccccc1)C(c1ccc(Cn2c(-c3cscn3)nc3ccccc32)cc1)C1CCCCCC1 (single isomer, unassigned) [Example 31], the IC50 falls from 14.9 nM to 7.3 nM (2-fold).

Same assay, conditions: Homo sapiens, HepG2, HepG2 cells; culture supernatant; absorption at 450 nm inhibited by 50% vs solvent control; read-out: Apo B IC50

First: O=C(N[C@@H](CO)c1ccccc1)C(c1ccc(Cn2c(=O)oc3ccccc32)cc1)C1CCCCCC1 (some centres unmarked) [Example 51]
Second: O=C(N[C@@H](CO)c1ccccc1)C(c1ccc(Cn2c(=S)[nH]c3ccccc32)cc1)C1CCCCCC1 (some centres unmarked) [Example 52]
The IC50 of the first is 91-fold lower: 5.7 nM for the first, 518 nM for the second.

Cc1nc2ccccc2c(=O)n1Cc1ccc(C(C(=O)N[C@@H](CO)c2ccccc2)C2CCCC2)cc1 (stereo partly drawn) [Example 1, 2-Cyclopentyl-N-(2-hydroxy-1-(R)-phenylethyl)-2-[4-(2-methyl-4-oxo-4H-quinazolin-3-yl-methyl)phenyl]acetamide] and CSc1nc2ccccc2n1Cc1ccc(C(C(=O)N[C@@H](CO)c2ccccc2)C2CCCC2)cc1 (some centres unmarked) [Example 2] are within 1.5-fold of each other in IC50: 44.4 nM for the first, 38.1 nM for the second.

O=C(NCc1ccccc1)C(c1ccc(Cn2c(-c3ccccn3)nc3ccccc32)cc1)C1CCCCCC1 (centres unmarked) [Example 48] and O=C(NCc1ccccc1)C(c1ccc(Cn2c(-c3cscn3)nc3ccccc32)cc1)C1CCCCCC1 (centres unmarked) [Example 32] are within 1.5-fold of each other in IC50: 6.3 nM for the first, 5.3 nM for the second.

Compared with O=C(N[C@@H](CO)c1ccccc1)C(c1ccc(Cn2ncc3ccccc3c2=O)cc1)C1CCCCCC1 (some centres unmarked) [Example 70], CSc1nc2ccccc2n1Cc1ccc(C(C(=O)N[C@@H](CO)c2ccccc2)C2CCCCCC2)cc1 (some centres unmarked) [Example 5] is 1.6-fold lower in IC50: 58.8 nM for the first, 36 nM for the second.

Compared with C[S+]([O-])c1nc2ccccc2n1Cc1ccc(C(C(=O)N[C@@H](CO)c2ccccc2)C2CCCCCC2)cc1 (mixture of isomers) [Example 79, 2-(R/S)-Cycloheptyl-N-(2-hydroxy-1-(R)-phenylethyl)-2-[4-(2-methyl-(R/S)-sulphinyl-benzimidazol-1-ylmethyl)phenyl]acetamide], CCSc1nc2ccccc2n1Cc1ccc(C(C(=O)N[C@@H](CO)c2ccccc2)C2CCCC2)cc1 (some centres unmarked) [Example 9] is 5.4-fold lower in IC50: 15.2 nM for the first, 2.8 nM for the second.

Compared with O=C(N[C@@H](CO)c1ccccc1)C(c1ccc(Cn2c(SCc3ccccc3)nc3ccccc32)cc1)C1CCCC1 (single isomer, unassigned) [Example 12], O=C(N[C@@H](CO)c1ccccc1)C(c1ccc(Cn2c(Cc3ccccc3)nc3ccccc32)cc1)C1CCCC1 (some centres unmarked) [Example 20] is 20-fold higher in IC50: 12.6 nM for the first, 248 nM for the second.

Going from O=C(N[C@@H](CO)c1ccccc1)C(c1ccc(Cn2c(-c3ccsc3)nc3ccccc32)cc1)C1CCCC1 (some centres unmarked) [Example 37] to O=C(N[C@@H](CO)c1ccccc1)C(c1ccc(Cn2c(-c3cccs3)nc3ccccc32)cc1)C1CCCC1 (some centres unmarked) [Example 39], the IC50 rises from 3.6 nM to 81.7 nM (23-fold). The first is the more potent here.

First: O=C(N[C@@H](CO)c1ccccc1)C(c1ccc(Cn2c(SCc3ccccc3)nc3ccccc32)cc1)C1CCCC1 (some centres unmarked) [Example 11]
Second: O=C(N[C@@H](CO)c1ccccc1)C(c1ccc(Cn2c(SCc3c(Cl)cccc3Cl)nc3ccccc32)cc1)C1CCCC1 (some centres unmarked) [Example 14]
The IC50 of the first is 28-fold lower: 4.7 nM for the first, 130 nM for the second.

First: Cc1ccc2c(nc(-c3ccsc3)n2Cc2ccc(C(C(=O)N[C@@H](CO)c3ccccc3)C3CCCC3)cc2)c1C (some centres unmarked) [Example 38]
Second: Cc1ccc2c(nc(-c3cccs3)n2Cc2ccc(C(C(=O)N[C@@H](CO)c3ccccc3)C3CCCC3)cc2)c1C (some centres unmarked) [Example 40]
The IC50 of the first is 1.9-fold lower: 36.3 nM for the first, 69 nM for the second.

Compared with O=C(N[C@@H](CO)c1ccccc1)C(c1ccc(Cn2c(-c3ccccn3)nc3ccccc32)cc1)C1CCCCCC1 (some centres unmarked) [Example 47], O=C(N[C@@H](CO)c1ccccc1)C(c1ccc(Cn2c(-c3ccccn3)nc3ccccc32)cc1)C1CCCC1 (some centres unmarked) [Example 44] is 1.7-fold lower in IC50: 18.8 nM for the first, 11.3 nM for the second.

Going from O=C(N[C@@H](CO)c1ccccc1)C(c1ccc(Cn2c(-c3cccnc3)nc3ccccc32)cc1)C1CCCC1 (some centres unmarked) [Example 49] to O=C(N[C@@H](CO)c1ccccc1)C(c1ccc(Cn2c(-c3ccncc3)nc3ccccc32)cc1)C1CCCC1 (some centres unmarked) [Example 50], the IC50 rises from 3.6 nM to 17.9 nM (5-fold).

Going from O=C(N[C@@H](CO)c1ccccc1)C(c1ccc(Cn2c(-c3cscn3)nc3ccccc32)cc1)C1CCCCC1 (some centres unmarked) [Example 28] to O=C(N[C@@H](CO)c1ccccc1)C(c1ccc(Cn2c(-c3cscn3)nc3ccccc32)cc1)C1CCCC1 (some centres unmarked) [Example 25], the IC50 falls from 27.9 nM to 7.3 nM (3.8-fold).

O=C(N[C@@H](CO)c1ccccc1)C(c1ccc(Cn2c(-c3cc4ccccc4s3)nc3ccccc32)cc1)C1CCCC1 (some centres unmarked) [Example 41] and O=C(N[C@@H](CO)c1ccccc1)C(c1ccc(Cn2c(-c3csc(-c4ccccc4)n3)nc3ccccc32)cc1)C1CCCC1 (some centres unmarked) [Example 36] are within 1.5-fold of each other in IC50: 10.6 nM for the first, 9.1 nM for the second.

Compared with CSc1nc2cc(C)c(C)cc2n1Cc1ccc(C(C(=O)N[C@@H](CO)c2ccccc2)C2CCCC2)cc1 (some centres unmarked) [Example 8], C=CCSc1nc2ccccc2n1Cc1ccc(C(C(=O)N[C@@H](CO)c2ccccc2)C2CCCC2)cc1 (some centres unmarked) [Example 10] is 2-fold higher in IC50: 4.7 nM for the first, 9.5 nM for the second.

Cc1nc(-c2nc3ccccc3n2Cc2ccc(C(C(=O)N[C@@H](CO)c3ccccc3)C3CCCC3)cc2)cs1 (some centres unmarked) [Example 33] showed an IC50 of 5.3 nM.
